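All cell lines were grown in 96-well plates and treated with compound for 48 hours. GI50 is the concentration that inhibits growth by half.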 The source made the active and inactive calls. Cut-off read from the data, not from the text of the source: active = GI50 up to about 1.1 µM and inactive = higher.

Test systems include UACC-62; LOX IMVI; ACHN; SR; HCC 2998; SK-MEL-2; DU-145; SK-OV-3; UO-31; PC-3; CAKI-1; EKVX; NCI-H460; SN12C; K562; RXF 393; COLO 205; HCT-15; HT-29; SF-539.
What all share (assay): NCI anticancer screen, dose series, 48 h

As for `O=C1CC(C(=O)O)Cc2c(Br)ccc(O)c21` (stereo unspecified), the GI50 was > 100 µM (inactive) in the assay with UACC-62; > 100 µM (inactive) in the assay on LOX IMVI; > 100 µM (inactive) in the assay on ACHN; 43.7 µM (inactive) in the assay on SR; > 100 µM (inactive) in the assay on HCC 2998; > 100 µM (inactive) in the assay on SK-MEL-2. For the same compound, the GI50 with DU-145 is > 100 µM (inactive); with SK-OV-3, > 100 µM (inactive); in the assay with UO-31, > 100 µM (inactive); in the assay on PC-3, > 100 µM (inactive); in the assay with CAKI-1, > 100 µM (inactive); in the assay with EKVX it was 78.2 µM (inactive). The GI50 with NCI-H460 is > 100 µM (inactive); with SN12C, > 100 µM (inactive); with K562, > 100 µM (inactive); with RXF 393, > 100 µM (inactive); in the assay with COLO 205, > 100 µM (inactive); in the assay with HCT-15 it was over 100 µM. Also, in the assay on HT-29, the GI50 was > 100 µM (inactive).
For the compound `CCc1c(O)nc(Nc2nc3ccccc3[nH]2)[nH]c1=O`, the GI50 in the assay on UACC-62 was > 100 µM (inactive); with LOX IMVI, > 100 µM (inactive); in the assay with ACHN, > 100 µM (inactive); in the assay on SR, 92.9 µM (inactive); in the assay on HCC 2998, > 100 µM (inactive); in the assay with SK-MEL-2 it was > 100 µM (inactive). Moreover, the GI50 in the assay on DU-145, in the assay on SK-OV-3, in the assay with UO-31, with SF-539, in the assay on PC-3 and in the assay on NCI-H460 was > 100 µM (inactive) in each case. For the same compound, the GI50 in the assay on SN12C is > 100 µM (inactive); in the assay on K562, > 100 µM (inactive); in the assay with RXF 393, > 100 µM (inactive); with COLO 205, > 100 µM (inactive); with HCT-15, over 100 µM; in the assay on HT-29 it was > 100 µM (inactive).
In the case of `CCOC(=O)/C=C(/N=P(c1ccccc1)(c1ccccc1)c1ccccc1)C(F)(F)F`, the GI50 was 5.9 µM (inactive) with UACC-62; > 10 µM (inactive) with LOX IMVI; > 10 µM (inactive) in the assay on ACHN; > 10 µM (inactive) with SR; 22 µM (inactive) in the assay with HCC 2998; > 10 µM (inactive) in the assay with SK-MEL-2. Moreover, the GI50 in the assay with DU-145 is > 10 µM (inactive); in the assay with SK-OV-3, > 100 µM (inactive); in the assay on UO-31 it was > 100 µM (inactive); with SF-539, > 10 µM (inactive); with PC-3, > 10 µM (inactive); with EKVX it was > 10 µM (inactive). In addition, the GI50 in the assay with NCI-H460 was > 10 µM (inactive); with SN12C, > 10 µM (inactive); in the assay on K562, > 10 µM (inactive); in the assay on RXF 393, > 10 µM (inactive); with COLO 205, > 10 µM (inactive); with HCT-15 it was over 10 µM. Also, the GI50 in the assay with HT-29 is > 10 µM (inactive).
For `COc1ccc(/C(Cl)=C(\C=O)c2ccc([N+](=O)[O-])cc2)cc1OC`, the GI50 in the assay on UACC-62 is 3.92 µM (inactive); in the assay with LOX IMVI, 2.87 µM (inactive); with ACHN it was 8.83 µM (inactive); with SR, 3.03 µM (inactive); in the assay with SK-MEL-2, 21 µM (inactive); in the assay with DU-145 it was 19.2 µM (inactive). The GI50 was 26.7 µM (inactive) in the assay on SK-OV-3; 12.2 µM (inactive) in the assay on UO-31; 12.5 µM (inactive) with SF-539; 8.71 µM (inactive) with PC-3; 9.08 µM (inactive) with CAKI-1; > 33.3 µM (inactive) in the assay on EKVX. In addition, the GI50 in the assay on NCI-H460 was 9.27 µM (inactive); with SN12C it was 5.73 µM (inactive); in the assay on K562 it was 3.62 µM (inactive); with RXF 393, 3.76 µM (inactive); in the assay with COLO 205 it was 14.2 µM (inactive); in the assay with HCT-15, 5 µM. For the same compound, in the assay with HT-29, the GI50 was 14.2 µM (inactive).
Turning to `C=C1c2nc3ccccc3n2C=C(c2ccc(Cl)cc2)N1c1ccc(OCCN2CCOCC2)cc1`, the GI50 was 19.9 µM (inactive) in the assay with UACC-62; 11 µM (inactive) in the assay on LOX IMVI; 34.9 µM (inactive) in the assay on ACHN; 12 µM (inactive) in the assay with SR; 37.9 µM (inactive) in the assay on HCC 2998; 6.73 µM (inactive) in the assay on SK-MEL-2. The GI50 with DU-145 was 49.8 µM (inactive); with SK-OV-3, > 100 µM (inactive); in the assay with UO-31 it was 33.4 µM (inactive); in the assay with SF-539 it was 55.3 µM (inactive); with PC-3, 10.5 µM (inactive); in the assay on NCI-H460 it was 5.47 µM (inactive). Moreover, the GI50 was > 100 µM (inactive) in the assay on SN12C; 9.82 µM (inactive) with K562; 32.7 µM (inactive) in the assay on RXF 393; 18.9 µM (inactive) with COLO 205; 12.7 µM in the assay on HCT-15; 12.2 µM (inactive) with HT-29.
Take `CCC(=O)n1c(=O)n(-c2ccc([N+](=O)[O-])cc2)c(=O)n1C(=O)CC`: the GI50 in the assay on UACC-62, with LOX IMVI, with ACHN, with SR, in the assay on HCC 2998 and in the assay on SK-MEL-2 was > 100 µM (inactive) in each case. Moreover, the GI50 in the assay on DU-145, in the assay on SK-OV-3, in the assay with UO-31, in the assay with PC-3, in the assay with CAKI-1 and with EKVX was > 100 µM (inactive) each time. Moreover, the GI50 was > 100 µM (inactive) with NCI-H460; > 100 µM (inactive) in the assay on SN12C; > 100 µM (inactive) with K562; > 100 µM (inactive) with RXF 393; > 100 µM (inactive) with COLO 205; over 100 µM in the assay with HCT-15. Moreover, the GI50 in the assay with HT-29 is > 100 µM (inactive).
With `CCSc1[nH]c(Nc2nc(-c3ccccc3)n(-c3ccccc3)n2)c(C(N)=O)c1C(N)=O`, the GI50 with UACC-62, with LOX IMVI, in the assay on SR, in the assay on HCC 2998, in the assay on DU-145 and in the assay on SK-OV-3 was > 10 µM (inactive) each time. For the same compound, the GI50 in the assay with PC-3 is > 10 µM (inactive); in the assay with CAKI-1, > 10 µM (inactive); in the assay with EKVX, > 10 µM (inactive); in the assay on SN12C, > 10 µM (inactive); with K562 it was > 10 µM (inactive); with RXF 393, 6.5 µM (inactive). Also, the GI50 was > 10 µM (inactive) with COLO 205, over 10 µM in the assay with HCT-15 and > 10 µM (inactive) in the assay with HT-29.
Turning to `O=C(O)c1ccc(CI)cc1`, the GI50 in the assay on UACC-62 is 10.8 µM (inactive); in the assay on ACHN it was 15.7 µM (inactive); in the assay on SR, 21.6 µM (inactive); in the assay with HCC 2998, 18 µM (inactive); with SK-MEL-2, 17.9 µM (inactive); in the assay with DU-145, 18.4 µM (inactive). Also, the GI50 was 25.4 µM (inactive) in the assay with SK-OV-3; 18 µM (inactive) with UO-31; 18 µM (inactive) with SF-539; 15.1 µM (inactive) in the assay on PC-3; 13.7 µM (inactive) in the assay with CAKI-1; 19.5 µM (inactive) in the assay with EKVX. In addition, the GI50 in the assay on NCI-H460 is 15.6 µM (inactive); in the assay on SN12C it was 17 µM (inactive); in the assay on K562, 23.7 µM (inactive); in the assay on RXF 393, 17.7 µM (inactive); in the assay with COLO 205 it was 15.4 µM (inactive); in the assay with HCT-15, 16 µM. Moreover, the GI50 with HT-29 is 15.1 µM (inactive).
Turning to `COC(=O)C1=C([C@H]2COC(C)(C)O2)[C@H]2C[C@@H]1[C@@H]1OC(C)(C)O[C@@H]12`, the GI50 in the assay on UACC-62, in the assay with LOX IMVI, with ACHN, in the assay on SR, in the assay with HCC 2998 and in the assay with SK-MEL-2 was > 100 µM (inactive) in each case. For the same compound, the GI50 with DU-145, with SK-OV-3, in the assay with UO-31, in the assay on SF-539, in the assay with PC-3 and in the assay with EKVX was > 100 µM (inactive) each time. Besides, the GI50 in the assay with NCI-H460 is > 100 µM (inactive); in the assay on SN12C, > 100 µM (inactive); in the assay with K562, > 100 µM (inactive); in the assay with RXF 393, > 100 µM (inactive); in the assay with COLO 205, > 100 µM (inactive); in the assay on HCT-15, over 100 µM. The GI50 in the assay with HT-29 is > 100 µM (inactive).
`CCOC(=O)c1nc2ccc(C(F)(F)F)cc2nc1Nc1ccc(OC)cc1`: the GI50 with UACC-62 is 55.7 µM (inactive); in the assay with LOX IMVI, > 100 µM (inactive); with ACHN, 55 µM (inactive); in the assay with SR it was > 100 µM (inactive); with HCC 2998 it was > 100 µM (inactive); with SK-MEL-2 it was 71.9 µM (inactive). In addition, the GI50 in the assay with DU-145 was > 100 µM (inactive); with UO-31, > 100 µM (inactive); with SF-539, 33 µM (inactive); with PC-3, 49.7 µM (inactive); with EKVX, 98.9 µM (inactive); in the assay on NCI-H460 it was 41.1 µM (inactive). In addition, the GI50 in the assay on K562 is 68.2 µM (inactive); in the assay with RXF 393, 22.1 µM (inactive); in the assay on COLO 205, > 100 µM (inactive); with HCT-15, over 100 µM; with HT-29, > 100 µM (inactive).
For `C[N+](C)(C)C1(C(=O)[O-])CC1`, the GI50 with LOX IMVI, with ACHN, with SR, in the assay on HCC 2998, with DU-145 and in the assay on SF-539 was > 100 µM (inactive) each time. Moreover, the GI50 in the assay on PC-3, in the assay on EKVX, with NCI-H460, in the assay with SN12C, in the assay with K562 and with RXF 393 was > 100 µM (inactive) throughout. Besides, the GI50 was over 100 µM in the assay on HCT-15 and > 100 µM (inactive) in the assay with HT-29.

For the origin of these results see ChEMBL document CHEMBL1201862, “PubChem BioAssay data set” (2004).
